Experimental data: ChEMBL document CHEMBL4613218, “Synthesis, in vitro and in vivo biological evaluation of novel graveolinine derivatives as potential anti-Alzheimer agents” (Bioorg Med Chem, 2020)
Active and inactive are the calls of the source. The calls are words filed in the database; no cut-off is given here.

Key:
[1] = Cytotoxicity against human HepG2 cells assessed as inhibition of cell viability at 10 uM after 48 hrs by MTT assay relative to control; type: cell-based; conditions: read-out: INH
[2] = Selectivity index, ratio of IC50 for electric eel AChE to IC50 for equine serum BuChE
[3] = Cytotoxicity against rat PC12 cells assessed as inhibition of cell viability at 10 uM after 48 hrs by MTT assay relative to control; type: cell-based, PC-12; conditions: read-out: INH
[4] = target: Amyloid-beta precursor protein (Homo sapiens) (UniProt P05067); experiment: Inhibition of self-induced human amyloid beta (1 to 42) peptide aggregation at 20 uM measured after 48 hrs by ThT fluorescence assay relative to control
Chain of Amyloid-beta precursor protein (Homo sapiens) (P05067 whole entry): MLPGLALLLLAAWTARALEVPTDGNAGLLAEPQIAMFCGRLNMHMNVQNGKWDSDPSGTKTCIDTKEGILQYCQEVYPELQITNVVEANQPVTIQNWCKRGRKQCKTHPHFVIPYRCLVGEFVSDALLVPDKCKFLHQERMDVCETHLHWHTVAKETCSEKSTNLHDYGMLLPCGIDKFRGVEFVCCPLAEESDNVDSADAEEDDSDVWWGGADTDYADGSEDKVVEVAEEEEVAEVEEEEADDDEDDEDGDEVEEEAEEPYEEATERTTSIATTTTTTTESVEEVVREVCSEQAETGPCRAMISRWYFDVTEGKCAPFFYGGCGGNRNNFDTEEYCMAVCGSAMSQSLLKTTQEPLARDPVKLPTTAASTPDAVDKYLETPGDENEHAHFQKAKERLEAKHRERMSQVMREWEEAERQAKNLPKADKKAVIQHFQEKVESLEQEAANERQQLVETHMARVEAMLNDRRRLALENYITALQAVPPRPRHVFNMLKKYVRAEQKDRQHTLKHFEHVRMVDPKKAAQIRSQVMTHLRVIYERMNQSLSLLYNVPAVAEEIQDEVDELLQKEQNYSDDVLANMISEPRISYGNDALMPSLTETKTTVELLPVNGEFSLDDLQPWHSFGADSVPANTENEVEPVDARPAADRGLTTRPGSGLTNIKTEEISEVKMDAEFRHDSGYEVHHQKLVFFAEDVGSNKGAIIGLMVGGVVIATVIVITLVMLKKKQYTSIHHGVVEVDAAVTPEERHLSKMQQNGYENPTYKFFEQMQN

PC-12 = experiment: Cytotoxicity against rat PC12 cells assessed as growth inhibition after 48 hrs by MTT assay; type: cell-based; conditions: PC-12, 48 h
Acetylcholinesterase = Acetylcholinesterase (Electrophorus electricus, UniProt O42275); experiment: Inhibition of electric eel AChE using acetylthiocholine chloride as substrate preincubated for 15 mins followed by substrate addition by Ellman's method
Chain of Acetylcholinesterase (O42275 whole entry): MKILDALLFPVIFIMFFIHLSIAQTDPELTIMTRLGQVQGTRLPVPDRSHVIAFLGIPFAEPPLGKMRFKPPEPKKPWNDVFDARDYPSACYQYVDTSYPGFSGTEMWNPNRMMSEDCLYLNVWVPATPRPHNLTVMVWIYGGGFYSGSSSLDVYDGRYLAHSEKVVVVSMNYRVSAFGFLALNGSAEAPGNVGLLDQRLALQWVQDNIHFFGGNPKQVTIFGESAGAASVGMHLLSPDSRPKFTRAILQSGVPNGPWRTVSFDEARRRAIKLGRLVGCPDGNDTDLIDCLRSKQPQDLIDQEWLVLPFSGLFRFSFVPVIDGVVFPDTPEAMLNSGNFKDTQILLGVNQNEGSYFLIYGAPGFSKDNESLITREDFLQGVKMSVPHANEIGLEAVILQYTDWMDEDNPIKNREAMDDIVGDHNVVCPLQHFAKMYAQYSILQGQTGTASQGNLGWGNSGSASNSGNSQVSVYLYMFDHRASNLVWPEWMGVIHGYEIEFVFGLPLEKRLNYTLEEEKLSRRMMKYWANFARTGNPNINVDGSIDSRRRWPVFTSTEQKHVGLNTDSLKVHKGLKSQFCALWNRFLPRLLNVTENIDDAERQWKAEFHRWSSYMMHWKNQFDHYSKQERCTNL

HepG2 = experiment: Cytotoxicity against human HepG2 cells assessed as growth inhibition after 48 hrs by MTT assay; type: cell-based; conditions: HepG2, 48 h
Cholinesterase = Cholinesterase (Equus caballus, UniProt P81908); experiment: Inhibition of equine serum BuChE using butyrylthiocholine chloride as substrate preincubated for 15 mins followed by substrate addition by Ellman's method
Chain of Cholinesterase (P81908 whole entry): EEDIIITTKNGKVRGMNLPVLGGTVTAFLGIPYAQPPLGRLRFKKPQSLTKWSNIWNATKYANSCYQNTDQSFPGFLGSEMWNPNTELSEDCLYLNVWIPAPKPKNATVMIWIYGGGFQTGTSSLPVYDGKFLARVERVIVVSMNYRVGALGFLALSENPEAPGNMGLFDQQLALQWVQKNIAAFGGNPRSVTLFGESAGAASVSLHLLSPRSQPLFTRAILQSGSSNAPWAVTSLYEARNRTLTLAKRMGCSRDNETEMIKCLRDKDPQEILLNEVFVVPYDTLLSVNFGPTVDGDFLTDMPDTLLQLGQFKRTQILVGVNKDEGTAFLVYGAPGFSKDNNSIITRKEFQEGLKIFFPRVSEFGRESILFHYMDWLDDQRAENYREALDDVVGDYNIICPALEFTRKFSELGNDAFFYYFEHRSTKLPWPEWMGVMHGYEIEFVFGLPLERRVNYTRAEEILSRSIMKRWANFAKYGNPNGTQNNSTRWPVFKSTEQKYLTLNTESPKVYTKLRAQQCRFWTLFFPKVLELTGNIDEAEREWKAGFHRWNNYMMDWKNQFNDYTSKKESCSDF

[5] = target: Amyloid-beta precursor protein (Homo sapiens) (UniProt P05067); experiment: Inhibition of self-induced human amyloid beta (1 to 42) peptide aggregation assessed as reduction in number of amyloid beta aggregates at 20 uM measured after 48 hrs by TEM analysis
Mus musculus [6] = experiment: (§1) Antialzheimer activity against scopolamine-induced cognition deficit ICR mouse model assessed as increase in number of platform crossings at 20 umol/kg, po treated 30 mins prior to scopolamine challenge and measured at 30 mins post-scopolamine challenge on day 15 of probe trial by Morris water maze test; type: functional, organism-based
Mus musculus [7] = experiment: as §1, with “impairment” for “deficit”, “swimming time in target quadrant” for “number of platform crossings”, “by” for “by Morris”; type: functional, organism-based
[8] = target: Acetylcholinesterase (Torpedo californica) (UniProt P04058); experiment: Non-competitive inhibition of pacific electric ray AChE pre-incubated with enzyme for 15 mins followed by acetylthiocholine chloride substrate addition by spectrophotometric method based Lineweaver-Burk plot analysis; conditions: Tetronarce californica
Chain of Acetylcholinesterase (Torpedo californica) (P04058 22-564 limits assumed): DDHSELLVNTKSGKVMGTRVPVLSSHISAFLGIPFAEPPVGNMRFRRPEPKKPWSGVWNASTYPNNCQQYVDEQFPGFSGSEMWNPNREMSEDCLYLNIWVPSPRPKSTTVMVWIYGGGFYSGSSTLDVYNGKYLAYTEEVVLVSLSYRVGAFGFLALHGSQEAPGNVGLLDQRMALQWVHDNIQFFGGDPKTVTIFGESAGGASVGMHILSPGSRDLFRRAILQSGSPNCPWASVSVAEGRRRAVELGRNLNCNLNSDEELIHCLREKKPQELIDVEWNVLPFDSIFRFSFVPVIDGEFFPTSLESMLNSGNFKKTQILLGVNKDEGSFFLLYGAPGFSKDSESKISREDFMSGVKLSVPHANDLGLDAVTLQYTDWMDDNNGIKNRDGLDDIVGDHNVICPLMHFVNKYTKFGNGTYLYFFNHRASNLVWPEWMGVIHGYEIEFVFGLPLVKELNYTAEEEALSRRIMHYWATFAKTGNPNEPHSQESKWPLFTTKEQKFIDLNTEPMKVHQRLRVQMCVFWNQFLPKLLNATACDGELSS

[9] = Toxicity in scopolamine-induced cognition deficit ICR mouse model assessed as effect on swimming speed at 20 umol/kg, po treated 30 mins prior to scopolamine challenge and measured at 30 mins post-scopolamine challenge on day 15 of probe trial by Morris water maze test; type: organism-based; conditions: in vivo, 0.5 h
[10] = Toxicity in scopolamine-induced cognition deficit ICR mouse model assessed as effect on total distance travelled at 20 umol/kg, po treated 30 mins prior to scopolamine challenge and measured at 30 mins post-scopolamine challenge on day 15 of probe trial by Morris water maze test; type: organism-based; conditions: in vivo, 0.5 h
Mus musculus [11] = experiment: Antialzheimer activity against scopolamine-induced cognition impairment ICR mouse model assessed as mean escape latency time at 20 umol/kg, po treated 30 mins prior to scopolamine challenge and measured at 30 mins post-scopolamine challenge for 4 days of training trial sessions by Morris water maze test (reference value: 59.8 to 62.2 secs); type: functional
Mus musculus [12] = experiment: as §1, with “impairment” for “deficit”, “path length in target quadrant” for “number of platform crossings”; type: functional, organism-based

| Structure (SMILES) | cytotoxicity at 48 h, 10 µM [1] | Ratio IC50 [2] | cytotoxicity at 48 h, 10 µM [3] | inhibition [4] | IC50 (PC-12) | IC50 (Acetylcholinesterase) | IC50 (HepG2) | IC50 (Cholinesterase) | inhibition [5] | Activity (Mus musculus [6]) | Activity (Mus musculus [7]) | inhibition [8] | Activity [9] | Activity [10] | Time (Mus musculus [11]) | Activity (Mus musculus [12]) |
| --- | --- | --- | --- | --- | --- | --- | --- | --- | --- | --- | --- | --- | --- | --- | --- | --- |
| c1ccc2c(NCCCN3CCOCC3)cc(-c3ccc4c(c3)OCO4)nc2c1 | < 5% | 0.4 | < 5% | 61.6% | > 50 µM | 3.22 µM | 17.7 µM | 8.15 µM | – | – | – | – | – | – | – | – |
| OCCCCNc1cc(-c2ccccc2)nc2ccccc12 | < 5% | 2.3 | < 5% | 40.7% | > 50 µM | 9.85 µM | > 50 µM | 4.31 µM | – | – | – | – | – | – | – | – |
| c1ccc2c(N3CCCCC3)cc(-c3ccc4c(c3)OCO4)nc2c1 | < 5% | > 4.8 | < 5% | 48.5% | > 50 µM | > 10 µM | > 50 µM | 2.09 µM | – | – | – | – | – | – | – | – |
| OCCCNc1cc(-c2ccccc2)nc2ccccc12 | < 5% | – | < 5% | 36.8% | > 50 µM | > 10 µM | > 50 µM | > 10 µM | – | – | – | – | – | – | – | – |
| c1ccc2c(NCCCN3CCCCC3)cc(-c3ccc4c(c3)OCO4)nc2c1 | 43.7% | 3.3 | 71.5% | 65.6% | 7.17 µM | 4.78 µM | 9.21 µM | 1.45 µM | – | – | – | – | – | – | – | – |
| COc1cc(/C=C/C(=O)CC(=O)/C=C/c2ccc(O)c(OC)c2)ccc1O | – | – | – | – | – | – | – | – | Active | – | – | – | – | – | – | – |
| OCCCCNc1cc(-c2ccc3c(c2)OCO3)nc2ccccc12 | < 5% | 0.44 | 14.7% | 44.1% | 34.3 µM | 4.26 µM | > 50 µM | 9.78 µM | – | – | – | – | – | – | – | – |
| c1ccc(-c2cc(N3CCCC3)c3ccccc3n2)cc1 | 12.6% | 8.6 | 24.2% | 57.7% | 24.7 µM | 3.71 µM | 30.9 µM | 0.43 µM | – | – | – | – | – | – | – | – |
| COc1cc(-c2ccc3c(c2)OCO3)nc2ccccc12 [GRAVEOLININE] | 8.76% | 1.3 | < 5% | 26.9% | > 50 µM | 36.3 µM | > 50 µM | 28.2 µM | – | – | – | – | – | – | – | – |
| OCCCCCCNc1cc(-c2ccc3c(c2)OCO3)nc2ccccc12 | < 5% | 0.67 | < 5% | 39.4% | > 50 µM | 4.32 µM | > 50 µM | 6.49 µM | – | – | – | – | – | – | – | – |
| OCCCCCCNc1cc(-c2ccccc2)nc2ccccc12 | 12% | 2.1 | < 5% | 29.2% | > 50 µM | 6.22 µM | 44.2 µM | 2.96 µM | – | – | – | – | – | – | – | – |
| c1ccc(-c2cc(NCCCN3CCOCC3)c3ccccc3n2)cc1 | 12.7% | > 2.3 | 12.6% | 55.5% | 35.2 µM | > 10 µM | 30.1 µM | 4.44 µM | – | – | – | – | – | – | – | – |
| c1ccc(-c2cc(NCCCN3CCCCC3)c3ccccc3n2)cc1 | 24.1% | > 8.4 | 11.6% | 60.3% | 40.5 µM | > 10 µM | 25.7 µM | 1.19 µM | – | – | – | – | – | – | – | – |
| CCCCNc1cc(-c2ccc3c(c2)OCO3)nc2ccccc12 | 15.4% | 0.61 | 11.2% | 30.6% | 46.2 µM | 4.8 µM | > 50 µM | 7.85 µM | – | – | – | – | – | – | – | – |
| OCCCNc1cc(-c2ccc3c(c2)OCO3)nc2ccccc12 | < 5% | < 0.42 | 8.38% | 36.6% | > 50 µM | 4.23 µM | > 50 µM | > 10 µM | – | – | – | – | – | – | – | – |
| c1ccc2c(N3CCCC3)cc(-c3ccc4c(c3)OCO4)nc2c1 | < 5% | 4.5 | < 5% | 62.5% | > 50 µM | 0.72 µM | > 50 µM | 0.16 µM | Active | Active | Active | Active | Non-Toxic | Non-Toxic | 48.1 s | Active |
